Literature values as cited in US20180116952A1, “ORAL PHARMACEUTICAL COMPOSITION OF METHYL[…] METHODS OF USE THEREOF” (Lupin Atlantis Holdings SA, priority 2015, published 2018).

System: patients with drug-induced refractory headache
Details: 60 consecutive patients with drug-induced refractory headache

For `CCC(CO)NC(=O)[C@@H]1C=C2c3cccc4[nH]cc(c34)C[C@H]2N(C)C1.O=C(O)/C=C\C(=O)O` (stereo partly shown) [methylergonovine, methylergonovine maleate], the “patients in whom methylergonovine was effective” value is given as 73%.
